Biological target: T1, human MCH receptor (Homo sapiens, UniProt Q99705)
T1 construct: expressed in transfected cells
Test: calcium immobilization assay: functional IC50 of MCH1R antagonists (cellular calcium flux, FLIPR)
Type: cell-based
Conditions: recombinant HEK293 cell line expressing the human MCH receptor, calcium flux after addition of agonist (MCH)
Excerpt: Influence on the MCH receptor in vitro; determination of functional IC50 values of MCH1R antagonists
Cloning of the cDNA for the human MCH receptor, preparation of a recombinant HEK293 cell line which expresses the human MCH receptor, and functional measurements with the recombinant cell line took place in analogy to the description by Audinot et al. (J. Biol. Chem. 276, 13554-13562, 2001). A difference from the reference was, however, the use of the plasmid pEAK8 from EDGE Biosystems (JSA) for the construction of the expression vector. The host used for the transfection was a transformed HEK cell line named “PEAK Stable Cells” (likewise from EDGE Biosystems). Functional measurements of the cellular calcium flux after addition of agonist (MCH) in the presence of ligand of the invention took place with the aid of the FLIPR apparatus from Molecular Devices (USA), using protocols of the apparatus manufacturer. The compounds of the invention show a significant inhibition (>30%) of the signal induced by the agonist at a concentration of 100 μM, preferably at 10 μM, particularly preferably at 1 μM, very particularly preferably at 100 nM and even more particularly preferably at 10 nM.

T1 sequence (Q99705 whole entry): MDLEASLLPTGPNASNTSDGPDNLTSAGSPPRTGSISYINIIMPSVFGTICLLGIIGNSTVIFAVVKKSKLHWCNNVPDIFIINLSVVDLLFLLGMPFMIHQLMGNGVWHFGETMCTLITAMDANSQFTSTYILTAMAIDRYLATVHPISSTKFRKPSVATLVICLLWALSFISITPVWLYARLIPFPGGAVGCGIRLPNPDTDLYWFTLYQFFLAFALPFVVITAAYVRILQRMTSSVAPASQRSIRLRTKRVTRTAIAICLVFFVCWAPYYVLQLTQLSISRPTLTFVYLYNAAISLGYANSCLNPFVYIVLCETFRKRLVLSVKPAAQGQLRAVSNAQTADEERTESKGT

SMILES | IC50 [nM]
COC(C)(C)CCc1cc2ncn(-c3ccc(N4CC[C@@H](N(C)C)C4)cc3)c(=O)c2s1 [Example 57] | 2090
C[C@@H](O)C#Cc1cc2ncn(-c3ccc(N4CC[C@@H](N5CCCC5)C4)c(F)c3)c(=O)c2s1 [Example 42] | 180
CN(C)[C@@H]1CCN(c2ccc(-n3cnc4cc(C#CC5(O)CCCC5)sc4c3=O)cc2)C1 [Example 32] | 1350
CCC(O)CCc1cc2ncn(-c3ccc(N4CC[C@@H](N5CCCC5)C4)c(F)c3)c(=O)c2s1 (stereo partly drawn) [Example 63] | 240
COCC#Cc1cc2ncn(-c3ccc(N4CC[C@@H](N(C)C)C4)c(F)c3)c(=O)c2s1 [Example 47] | 230
CN(CCS(C)(=O)=O)[C@@H]1CCN(c2ccc(-n3cnc4cc(CCC5CC5)sc4c3=O)cc2)C1 [Example 50, 6-(2-Cyclopropylethyl)-3-(4-{(R)-3-[(2-methanesulfonylethyl)methylamino]pyrrolidin-1-yl}phenyl)-3H-thieno[3,2-d]pyrimidin-4-one] | 320
COCCCc1cc2ncn(-c3ccc(N4CC[C@@H](N5CCCC5)C4)c(F)c3)c(=O)c2s1 [Example 61] | 560
CN1CCCN(c2ccc(-n3cnc4cc(C(=O)C5CCCC5)sc4c3=O)cc2)CC1 [Example 76, 6-Cyclopentanecarbonyl-3-[4-(4-methyl[1,4]diazepan-1-yl)phenyl]-3H-thieno[3,2-d]pyrimidin-4-one] | 8740
CC(O)C#Cc1cc2ncn(-c3ccc(N4CC[C@@H](N(C)CCS(C)(=O)=O)C4)cc3)c(=O)c2s1 (stereo partly drawn) [Example 38] | 440
CN1CCCN(c2ccc(-n3cnc4cc(C(O)C5CCCC5)sc4c3=O)cc2)CC1 (stereo not drawn) [Example 77, 6-(Cyclopentylhydroxymethyl)-3-[4-(4-methyl[1,4]diazepan-1-yl)phenyl]-3H-thieno[3,2-d]-pyrimidin-4-one] | 9030
CN(C)[C@@H]1CCN(c2ccc(-n3cnc4cc(N5CCCCC5)sc4c3=O)cc2)C1 [Example 65, 3-[4-((R)-3-Dimethylaminopyrrolidin-1-yl)phenyl]-6-piperidin-1-yl-3H-thieno[3,2-d]pyrimidin-4-one] | 1330
CCC(O)C#Cc1cc2ncn(-c3ccc(N4CC[C@@H](N(C)CCS(C)(=O)=O)C4)cc3)c(=O)c2s1 (stereo partly drawn) [Example 40] | 660
CCCOCc1cc2ncn(-c3ccc(N4CCC(N(C)C)C4)cc3)c(=O)c2s1 (stereo not drawn) [Example 95, 3-[4-(3-Dimethylamino-pyrrolidin-1-yl)-phenyl]-6-propoxymethyl-3H-thieno[3,2-d]pyrimidin-4-one] | 340
CS(=O)(=O)CCN1CCCN(c2ccc(-n3cnc4cc(C#CC5CC5)sc4c3=O)cc2)CC1 [Example 44, 6-Cyclopropylethynyl-3-{4-[4-(2-methanesulfonyl-ethyl)-[1,4]diazepan-1-yl]-phenyl}-3H-thieno[3,2-d]pyrimidin-4-one] | 740
COCC#Cc1cc2ncn(-c3ccc(N4CC[C@@H](N(C)CCS(C)(=O)=O)C4)cc3)c(=O)c2s1 [Example 39] | 920
CN(C)C1CCN(c2ccc(-n3cnc4cc(COCC5CC5)sc4c3=O)cc2)C1 (stereo not drawn) [Example 96, 6-Cyclopropylmethoxymethyl-3-[4-(3-dimethylamino-pyrrolidin-1-yl)-phenyl]-3H-thieno[3,2-d]pyrimidin-4-one] | 600
CC(O)C#Cc1cc2ncn(-c3ccc(N4CC[C@@H](N(C)C)C4)cc3)c(=O)c2s1 (stereo partly drawn) [Example 30, 3-[4-((R)-3-Dimethylaminopyrrolidin-1-yl)phenyl]-6-(3-hydroxybut-1-ynyl)-3H-thieno[3,2-d]pyrimidin-4-one] | 380
CN(C)[C@@H]1CCN(c2ccc(-n3cnc4cc(C#CC5CC5)sc4c3=O)cc2)C1 [Example 45, 6-Cyclopropylethynyl-3-[4-((R)-3-dimethylamino-pyrrolidin-1-yl)-phenyl]-3H-thieno[3,2-d]pyrimidin-4-one] | 110
CC(O)C#Cc1cc2ncn(-c3ccc(N4CC[C@@H](N(C)C)C4)c(F)c3)c(=O)c2s1 (stereo partly drawn) [Example 49] | 180
CC(C)C(O)C#Cc1cc2ncn(-c3ccc(N4CCCN(C)CC4)cc3)c(=O)c2s1 (stereo not drawn) [Example 26] | 1100
CCO/C=C\c1cc2ncn(-c3ccc(N4CCCN(C)CC4)cc3)c(=O)c2s1 [Example 74, 6-((Z)-2-Ethoxyvinyl)-3-[4-(4-methyl[1,4]diazepan-1-yl)phenyl]-3H-thieno[3,2-d]pyrimidin-4-one] | 2950
